The record followed here is patent US11834430B2, “Compounds useful as inhibitors of isoprenylcysteine carboxyl methyltransferase” (AGENCY FOR SCIENCE, TECHNOLOGY AND RESEARCH, priority 2017, dated 2023).

The structures appear in SMILES notation. Values joined by “and” are separate entries in the source; they are usually repeats but may differ in a detail not shown here. Identical values can stand only once.

This assay deals with human ICMT (Homo sapiens (Human), UniProt O60725). Kind of assay: ICMT biochemical assay (Methyltransferase-Glo). The note with it: ICMT membrane extract from Sf-9 cells; 30 min preincubation, 90 min reaction. The method, then: Recombinant human ICMT was prepared by infection of Sf9 cells with a recombinant baculovirus containing the entire open reading frame of the human ICMT cDNA.
human ICMT, sequence (O60725 whole entry): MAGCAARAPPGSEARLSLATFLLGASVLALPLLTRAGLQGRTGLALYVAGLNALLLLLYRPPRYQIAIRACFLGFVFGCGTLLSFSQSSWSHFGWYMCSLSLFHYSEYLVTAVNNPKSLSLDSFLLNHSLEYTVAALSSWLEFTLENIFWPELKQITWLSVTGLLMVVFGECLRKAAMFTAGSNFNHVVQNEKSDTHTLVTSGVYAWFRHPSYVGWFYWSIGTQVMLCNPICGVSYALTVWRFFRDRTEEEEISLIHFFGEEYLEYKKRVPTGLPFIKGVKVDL
Cells producing ICMT were harvested 66 hours post-infection. The cells are homogenized and resuspended in 5 mM NaHPO4 (pH 7.0), and a cocktail of protease inhibitors. The membrane was pelleted, after removal of nuclei and debris, at 100,000×g for 1 hour. Membranes were resuspended in 5 mM NaHPO4 (pH 7.0) with 5 mM EDTA at 10-12 mg/ml. The suspension was stored at −80° C. in multiple aliquots.
An ICMT enzymatic assay was developed using Promega's Methyltransferase-GloTMreagents. In the assay, ICMT catalyzes the methylation of the N-Acetyl-S-farnesyl-L-cysteine by transferring a methyl group from SAM to the farnesylated cysteine and further converts the SAM to SAH. The methyltransferase activity is measured based on the amount of SAH produced from the reaction through the use of coupling enzymes that convert the SAH to ATP. The MTase-Glo detection solution then catalyzes the formation of light from ATP.
A final concentration of 2.0 μM and 20 μM of SAM and peptide were added and further incubated for 90 minutes at room temperature before adding the MTase Glo and detection reagent. Reaction signals were detected using microplate readers on luminescent mode (Satire Tecan). The IC50 was determined by nonlinear regression, using GraphPad Prism version, 5.03.
One may read the IC50 as the concentration that inhibits the measured activity by half. `Cn1nccc1-c1cccc(OCCOc2ccc(Cl)cc2)c1` [Compound 110, 5-(3-(2-(4-chlorophenoxy)ethoxy)phenyl)-1-methyl-1H-pyrazole] returned an IC50 of 270 nM.

In turn, `Cn1nccc1-c1cc(F)cc(OCCOc2ccc(C#N)cc2F)c1` [Compound 105, 3-fluoro-4-(2-(3-fluoro-5-(1-methyl-1H-pyrazol-5-yl)phenoxy)ethoxy)benzonitrile] yielded an IC50 of 6 nM.

Take `Cc1nccn1-c1cccc(OCCOc2ccc(C#N)cc2F)n1` [Compound 86, 3-fluoro-4-(2-((6-(2-methyl-1H-imidazol-1-yl)pyridin-2-yl)oxy)ethoxy)benzonitrile]: the IC50 came to 17 nM.

Consider `Cc1nccn1-c1cccc(O[C@@H](C)COc2ccc(C#N)cc2Cl)c1` [Compound 33, (S)-3-chloro-4-(2-(3-(2-methyl-1H-imidazol-1-yl)phenoxy)propoxy)benzonitrile], for which 1.5 nM corresponded to half-maximal inhibition (IC50). With `Cc1cc(C#N)ccc1O[C@H](C)COc1cccc(-n2ccnc2C2CC2)c1` [Compound 68, (R)-4-((1-(3-(2-cyclopropyl-1H-imidazol-1-yl)phenoxy)propan-2-yl)oxy)-3-methylbenzonitrile], the IC50 was 1.5 nM and 13 nM.

As for `N#Cc1ccc(OCCOc2cccc(-c3cnoc3)c2)cc1` [Compound 67, 4-(2-(3-(isoxazol-4-yl)phenoxy)ethoxy)benzonitrile], the IC50 is 140 nM and 100 nM. The molecule `Cn1nccc1-c1cc(OCCOc2ccc(Br)cc2F)ccn1` [Compound 121, 4-(2-(4-bromo-2-fluorophenoxy)ethoxy)-2-(1-methyl-1H-pyrazol-5-yl)pyridine] came in with an IC50 of 70 nM. The molecule `COc1cc(C#N)ccc1O[C@@H](C)COc1cccc(-n2ccnc2C)c1` [Compound 72, (S)-3-methoxy-4-((1-(3-(2-methyl-1H-imidazol-1-yl)phenoxy)propan-2-yl)oxy)benzonitrile] came in with an IC50 of 4.5 nM. For `Cc1nccn1-c1cccc(OC(C)C(C)Oc2ccc(C#N)cc2F)c1` (stereo not shown) [Compound 63, 3-fluoro-4-(3-(3-(2-methyl-1H-imidazol-1-yl)phenoxy)butan-2-yloxy)benzonitrile], the IC50 was 18 nM and 6 nM. As to `N#Cc1ccc(OCCOc2cccc(-c3ccnn3C3CC3)c2)cc1` [Compound 117, 4-(2-(3-(1-cyclopropyl-1H-pyrazol-5-yl)phenoxy)ethoxy)benzonitrile], half-maximal inhibition (IC50) required 55 nM. Molecule `COc1cc(C#N)ccc1OC(C)COc1cccc(-c2ccnn2C)c1` (stereo not shown) [Compound 31, 3-methoxy-4-((1-(3-(1-methyl-1H-pyrazol-5-yl)phenoxy)propan-2-yl)oxy)benzonitrile] returned an IC50 of 1.2 nM. Molecule `Cc1nccn1-c1cccc(OC[C@@H](C)Oc2ccc(C#N)cc2Cl)c1` [Compound 55, (R)-3-chloro-4-((1-(3-(2-methyl-1H-imidazol-1-yl)phenoxy)propan-2-yl)oxy)benzonitrile] returned an IC50 of 11 nM. `Cn1nccc1-c1cc(OCCOc2ccc(Cl)cc2F)ccn1` [Compound 101, 4-(2-(4-chloro-2-fluorophenoxy)ethoxy)-2-(1-methyl-1H-pyrazol-5-yl)pyridine]: inhibition was half-maximal at 29 nM (IC50). For the molecule `Cn1nccc1-c1cccc(OCCOc2ccc(C#N)cc2Cl)c1` [Compound 7, 3-chloro-4-(2-(3-(1-methyl-1H-pyrazol-5-yl)phenoxy)ethoxy)benzonitrile], the midpoint of inhibition, the IC50, lay at 3 nM. `Cc1nccn1-c1cccc(O[C@H](C)COc2ccc(C#N)cc2F)c1` [Compound 34, (R)-3-fluoro-4-(2-(3-(2-methyl-1H-imidazol-1-yl)phenoxy)propoxy)benzonitrile] returned an IC50 of 1470 nM.

As to `COc1cc(C#N)ccc1O[C@H](C)COc1cccc(-c2ccnn2C)c1` [Compound 48, (R)-3-methoxy-4-((1-(3-(1-methyl-1H-pyrazol-5-yl)phenoxy)propan-2-yl)oxy)benzonitrile], half-maximal inhibition (IC50) required 0.64 nM. With `Cn1nccc1-c1cncc(OCCOc2ccc(C#N)cc2F)c1` [Compound 92, 3-fluoro-4-(2-((5-(1-methyl-1H-pyrazol-5-yl)pyridin-3-yl)oxy)ethoxy)benzonitrile], the IC50 fell in the range of 300 to 1000 nM.

Molecule `Cc1nccn1-c1cccc(OCCOc2ccc(C#N)cc2OC(F)(F)F)c1` [Compound 36, 4-(2-(3-(2-methyl-1H-imidazol-1-yl)phenoxy)ethoxy)-3-(trifluoromethoxy)benzonitrile] had an IC50 of 140 nM. The molecule `Cc1nccn1-c1cc(OCCOc2ccc(C#N)cc2Cl)ccn1` [Compound 24, 3-chloro-4-(2-((2-(2-methyl-1H-imidazol-1-yl)pyridin-4-yl)oxy)ethoxy)benzonitrile] came in with an IC50 of 1 nM. `Cc1nccn1-c1cccc(OCCOc2ccc(Cl)cc2)c1` [Compound 112, 1-(3-(2-(4-chlorophenoxy)ethoxy)phenyl)-2-methyl-1H-imidazole] had an IC50 of 250 nM. Molecule `Fc1cc(Cl)ccc1OCCOc1cccc(-n2ccnc2C2CC2)c1` [Compound 50, 1-(3-(2-(4-chloro-2-fluorophenoxy)ethoxy)phenyl)-2-cyclopropyl-1H-imidazole] returned an IC50 of 12 nM.

As to `Cn1nccc1-c1cc(OCCOc2ccc(Cl)cc2C#N)ccn1` [Compound 98, 5-chloro-2-(2-((2-(1-methyl-1H-pyrazol-5-yl)pyridin-4-yl)oxy)ethoxy)benzonitrile], half-maximal inhibition (IC50) was put at 10 nM. The IC50 values of the last two molecules are within 1.5-fold of each other. The molecule `N#Cc1ccc(OCCOc2ccnc(-n3ccnc3C3CC3)c2)cc1` [Compound 89, 4-(2-((2-(2-cyclopropyl-1H-imidazol-1-yl)pyridin-4-yl)oxy)ethoxy)benzonitrile] showed a 50% inhibitory concentration (IC50) of 2.8 nM.

As for `Cn1nccc1-c1cccc(OCCOc2ccc(C#N)cc2F)n1` [Compound 106, 3-fluoro-4-(2-((6-(1-methyl-1H-pyrazol-5-yl)pyridin-2-yl)oxy)ethoxy)benzonitrile], the IC50 fell in the range of 300 to 1000 nM. `Cc1cc(C#N)ccc1OC(C)COc1cccc(-c2ccnn2C)c1` (stereo not shown) [Compound 30, 3-methyl-4-((1-(3-(1-methyl-1H-pyrazol-5-yl)phenoxy)propan-2-yl)oxy)benzonitrile] registered an IC50 of 1.6 nM. The molecule `N#Cc1ccc(OCCOc2cccc(-n3ccnc3C3CC3)c2)c(N)c1` [Compound 52, 3-amino-4-(2-(3-(2-cyclopropyl-1H-imidazol-1-yl)phenoxy)ethoxy)benzonitrile] had an IC50 of 3.6 nM. Consider `Cc1nccn1-c1cccc(O[C@@H](C)COc2ccc(C#N)cc2F)c1` [Compound 35, (S)-3-fluoro-4-(2-(3-(2-methyl-1H-imidazol-1-yl)phenoxy)propoxy)benzonitrile], for which the IC50 is 3.6 nM. Take `COc1cc(C#N)ccc1OCCOc1cccc(-c2ccnn2C)c1` [Compound 15, 3-methoxy-4-(2-(3-(1-methyl-1H-pyrazol-5-yl)phenoxy)ethoxy)benzonitrile]: the IC50 was 1.1 nM and 0.9 nM.

As to `N#Cc1ccc(OCCOc2cccc(-c3cncs3)c2)c(F)c1` [Compound 12, 3-fluoro-4-(2-(3-(thiazol-5-yl)phenoxy)ethoxy)benzonitrile], it took 210 nM to reach half-maximal inhibition (IC50). This counts as sub-micromolar. In turn, `Cc1cc(C#N)ccc1O[C@@H](C)COc1cccc(-n2ccnc2C2CC2)c1` [Compound 49, (S)-4-((1-(3-(2-cyclopropyl-1H-imidazol-1-yl)phenoxy)propan-2-yl)oxy)-3-methylbenzonitrile] showed an IC50 of 0.3 nM. `Cn1nccc1-c1cccc(OCCOc2ccc(C#N)cc2)c1` [Compound 57, 4-(2-(3-(1-methyl-1H-pyrazol-5-yl)phenoxy)ethoxy)benzonitrile]: the IC50 is 9 nM.
